Experimental data published in US6602700B1, “Phenolic acid esterases, coding sequences and methods” (University of Georgia Research Foundation, Inc., priority 1998, dated 2003).

target: T1, FAE (Acetivibrio thermocellus, UniProt P10478); test: Inhibition of XynZ FAE by ferulic acid and sugars; format: biochemical, Clostridium thermocellum
T1 construct: made in house; host or cells: E. coli BL21(DE3)
T1 sequence (P10478 20-286): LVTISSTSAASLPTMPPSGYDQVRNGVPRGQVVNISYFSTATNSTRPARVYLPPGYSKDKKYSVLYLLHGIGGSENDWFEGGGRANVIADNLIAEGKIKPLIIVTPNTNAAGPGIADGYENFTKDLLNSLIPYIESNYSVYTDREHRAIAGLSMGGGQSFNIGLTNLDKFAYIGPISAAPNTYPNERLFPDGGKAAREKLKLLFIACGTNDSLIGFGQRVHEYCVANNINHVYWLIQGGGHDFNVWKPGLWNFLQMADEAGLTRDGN

SMILES	Inhibition of FAE
O=C[C@H](O)[C@@H](O)[C@H](O)CO [xylose]	not
O=C[C@@H](O)[C@H](O)[C@H](O)CO [arabinose]	not
COc1cc(/C=C/C(=O)O)ccc1O [ferulic acid]	inhibited
